The values below come from patent publication US8501810B2, “Guanidino acetic acid used as an animal food additive” (AlzChem Trostberg GmbH, priority 2004, dated 2013).

Data set [1] in a line: Feed for growing hens, additive in air-dried feed, 42 days' growing duration. Format: in vivo. The source says:
1.4 Feed for Growing Hens
In addition, with this feed additive, the feed consumption decreased by about 6% compared with previous feeding methods.
In addition, it was found in this experiment that even an addition of 0.032% by weight of guanidinoacetic acid (0.32 g/kg) to the air-dried feed increased the final weight by 3% for 42 days' growing duration. The feed consumption decreased by 3% compared with previous feeding methods.

Data set [2] in a line: Comparative example: creatine in the feed for growing hens, 41 days growing duration. The format is in vivo. The following applies: 0.2% (2 g/kg) in air-dried feed. The source says: 2. Comparative Example (According to EP 920 689)
The effect of the addition of creatine in the feed for growing hens was investigated.
The feed consumption decreased by about 2-3% compared with previous feeding methods.

The conditions of data set [3]: 1.112% in base feed, also in combination with methionine; cited from earlier work.
Data set [4] in a line: Stability in acidic aqueous solution. The format is physicochemical. The source says:
Thus in contrast to creatine, the majority of the compounds administered or fed, guanidinoacetic acid and/or salts of guanidinoacetic acid, are not degraded by instability reactions, for example in the stomach, and excreted before resorption, but are in fact available in the corresponding physiological metabolic reactions.

For data set [5] the following is noted: young rats, cited from earlier work.
The next data set concerns Staphyllococcus aureus. Particulars: cited from earlier work.
Setting [6] is: control group, 0.04% by weight (0.4 g/kg) in air-dried feed.
[7] abbreviates: 0.032% by weight (0.32 g/kg) in air-dried feed.
Where [8] appears, read: 0.092% by weight (0.92 g/kg) in air-dried feed.

With `CN(CC(=O)O)C(=N)N.O` [creatine monohydrate, reference compound], in data set [1] (setting [6]), the “decrease in feed consumption” value is “no decreased feed consumption” and the “increase in the final weight” value was “no increase in the final weight”.

With `CN(CC(=O)O)C(=N)N` [creatine], in data set [2], the “decrease in feed consumption compared with previous feeding methods” value (from here on “decrease … with previous feeding methods”) is listed as 2-3%; the “increase in the final weight compared with previous feeding methods” value is 4%; the meat quality result is recorded as “improved quality”; the “nature of the increase in weight (lean-body mass index)” value was “only by meat gain, but not by fat gain”.

On to `N=C(N)NCC(=O)O` [guanidinoacetic acid], for which, in data set [3], the feed utilization result was “significant decrease” and the weight gain result is “significant decrease”. In addition, in data set [1] (setting [7]), the “decrease … with previous feeding methods” value is reported as 3% and the “increase in the final weight” value is 3%. Further, in data set [1] (setting [8]), the “decrease … with previous feeding methods” value is reported as “about 6%”; the “increase in the final weight compared with previous feeding methods” value is 7%; the meat quality result is listed as “improved quality”; the “nature of the increase in weight (lean-body mass index)” value is listed as “solely by meat gain, but not by fat gain or water accumulation”. The “stability in acidic aqueous solution in contrast to creatine and creatine monohydrate” value in data set [4] is “significantly higher stability”. Further, the “creatine content in the skeletal musculature and in the heart muscle” value in data set [5] (additional administration of methionine) was “increased”. For the same molecule, in data set [5] (in combination with folacin and vitamin B12), the “effect on the muscle creatine level” value was “no effect”. The effect on growth entry in data set [5] is on record as “inhibitory activity”. Also, the “use against bacterial infections in animal experiments” value in the data set on Staphyllococcus aureus is listed as “successfully used”.
